Experiments:
[1] = molecular target: T1, human macrophage elastase (HME/hMMP-12) (Homo sapiens, UniProt P39900); assay: In vitro HME inhibition test in the presence of serum albumin (2% BSA); format: biochemical; conditions: presence of serum albumin (BSA, 2% w/w)
T1 construct: 0.5 nM HME; purchased R&D Systems 917-MP
Description: The activity of the compounds according to the invention towards HME (MMP-12) is ascertained in an in vitro inhibition test. The HME-mediated amidolytic cleavage of a suitable peptide substrate leads herein to a fluorescent light increase. The signal intensity of the fluorescent light is directly proportional to the enzyme activity. The active concentration of a test compound at which half of the enzyme is inhibited (50% signal intensity of the fluorescent light) is given as IC50 value.
This test corresponds to the standard HME inhibition test described above, but using a modified reaction buffer. This reaction buffer additionally comprises bovine serum albumin (BSA, fatty acid-free, A6003, Sigma-Aldrich) of a final concentration of 2% (w/w), which corresponds to approximately half of the physiological serum albumin content.
Table 1 below gives the IC50 values from these HME inhibition tests for the working examples of the present invention and also for two structurally related comparison compounds from the prior art (as racemate or separated enantiomers)→(sometimes as average values from several independent individual determinations and rounded to two significant places). The IC50 values were determined for racemates and enantiomers from differently generated DMSO stock solutions. Whereas an automatically created DMSO stock solution from the internal substance logistics was used for racemates by means of a standard method, for enantiomers and for a more precise direct comparison of the enantiomers with one another, in each case a freshly produced, manually prepared DMSO stock solution was used.

[2] = Hepatocyte assay for determining the metabolic stability; format: in vitro ADME; conditions: incubation with rat hepatocytes; read-out: Fmax (maximum possible bioavailability, well-stirred)
Description: (§1) The metabolic stability of test compounds towards hepatocytes is determined by incubating the compounds at low concentrations (preferably below or around 1 μM) and at low cell counts (preferably at 1*10^6 cells/ml) in order to ensure the greatest possible linear kinetic conditions in the experiment. Seven samples from the incubation solution are removed within a stipulated time frame for the LC-MS analysis in order to determine the half life (i.e. the degradation) of the particular compound. This half life is used to calculate various “Clearance” parameters (CL) and “Fmax” values (see below).
(§2) The CL and Fmax values are a measure of the phase 1 and phase 2 metabolism of the compounds in the hepatocytes. In order to keep the influence of the organic solvent on the enzymes in the incubation mixtures as low as possible, its concentration is generally limited to 1% (acetonitrile) or 0.1% (DMSO).
(§3) For all species and races, a hepatocyte cell count in the liver of 1.1*10^8 cells/g of liver is estimated.
(§4) The calculated parameters and their meaning are: • Fmax well-stirred [%] Maximum possible bioavailability following oral application
(§5) Calculation: (1−CLblood well-stirred/QH)*100 • CLblood well-stirred [L/(h*kg)] Calculated blood clearance (well stirred model) […]

rat hepatocytes = assay: as above; format: in vitro ADME; conditions: incubation with rat hepatocytes
Description: as §1, §2, §3, §4, §5

[3] = Pharmacokinetic investigations in vivo, rat; conditions: Rat (Wistar)
Description: (§6) The substance to be examined is administered to rats, mice or dogs intravenously as a solution (for example in corresponding plasma with a small addition of DMSO or in a PEG/ethanol/water mixture), and peroral administration is effected as a solution (for example in Solutol/ethanol/water or PEG/ethanol/water mixtures) or as a suspension (e.g. in a water/tylose mixture), in each case via a gavage. After administration of the substance, blood is taken from the animals at fixed times. The blood is heparinized, then plasma is obtained therefrom by centrifugation. The test substance is quantified analytically in the plasma via LC-MS/MS. From the plasma concentration/time plots determined in this way, using an internal standard and with the aid of a validated computer program, the pharmacokinetic parameters, such as AUC (area under the concentration/time curve), Cmax (maximum plasma concentration), t1/2 (half life), VSS (distribution volume) and CL (clearance), and the absolute and relative bioavailability F and Frel (i.v./p.o. comparison or comparison of suspension to solution after p.o. administration), are calculated.

[4] = Pharmacokinetic investigations in vivo, mouse; conditions: Mouse (C57BL/6)
Description: as §6

[5] = Pharmacokinetic investigations in vivo, dog; conditions: Dog (Beagle)
Description: as §6

[6] = plasma, iv, read-out: CLPlasma CLblood (converted)
[7] = plasma, po, p.o., read-out: t1/2 p.o. (converted)

T1 sequence (P39900 106-470): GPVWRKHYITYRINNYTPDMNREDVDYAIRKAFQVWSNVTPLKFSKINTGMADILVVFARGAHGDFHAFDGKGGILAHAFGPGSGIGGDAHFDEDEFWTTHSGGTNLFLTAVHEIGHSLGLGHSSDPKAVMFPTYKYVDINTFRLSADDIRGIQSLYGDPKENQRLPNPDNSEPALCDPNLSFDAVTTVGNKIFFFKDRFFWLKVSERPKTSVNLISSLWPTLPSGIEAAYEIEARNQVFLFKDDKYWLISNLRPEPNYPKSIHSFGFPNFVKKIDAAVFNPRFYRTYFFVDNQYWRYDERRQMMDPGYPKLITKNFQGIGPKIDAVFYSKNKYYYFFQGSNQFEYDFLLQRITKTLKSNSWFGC

Row | IC50 [1] | bioavailability [2] | CLblood (calculated blood clearance, well-stirred) (rat hepatocytes) | F ([3]; bioavailability from solution) | AUCnorm i.v. ([3]; i.v.) | Frel ([3]; suspension vs solution p.o.) | clearance [3, 6] | half-life [3, 7] | F ([4]; bioavailability from solution) | AUCnorm i.v. ([4]; i.v.) | clearance [4, 6] | half-life [4, 7] | F ([5]; bioavailability from solution) | AUCnorm i.v. ([5]; i.v.) | clearance [5, 6] | half-life [5, 7] | SMILES
1 | 170 nM |  |  |  |  |  |  |  |  |  |  |  |  |  |  |  | CCCCCOc1ccc(C(=O)CC(CCn2nnc3ccccc3c2=O)C(=O)O)cc1 (single isomer, unassigned; enantiomer 1) [Comparative Example B-2, (+)-4-Oxo-2-[2-(4-oxo-1,2,3-benzotriazin-3(4H)-yl)ethyl]-4-[4-(pentyloxy)phenyl]butanoic acid (enantiomer 1)]
2 | 8.4 nM | 84.4% | 10.8 mL/min/kg | 100% | 93.6 kg·h/L | 97% | 0.183 mL/min/kg | 8.4 h | 84% | 44.6 kg·h/L | 0.367 mL/min/kg | 5 h | 100% | 10.6 kg·h/L | 1.57 mL/min/kg | 14.4 h | O=C(O)[C@H]1[C@H](Cn2nnc3ccccc3c2=O)CC[C@@H]1C(=O)c1ccc(OCc2ccccc2)cc1 [Example 2, (+)-(1S,2S,5R)-2-[4-(Benzyloxy)benzoyl]-5-[(4-oxo-1,2,3-benzotriazin-3(4H)-yl)methyl]cyclopentanecarboxylic acid]
3 | 5.4 nM |  |  |  |  |  |  |  |  |  |  |  |  |  |  |  | O=C(O)[C@@H]1[C@@H](Cn2nnc3ccccc3c2=O)CC[C@H]1C(=O)c1ccc(-c2ccc(Cl)cc2)cc1 (single isomer, unassigned; enantiomer 2) [Comparative Example A-3, (1RS,2RS,5SR)-2-[(4′-Chlorobiphenyl-4-yl)carbonyl]-5-[(4-oxo-1,2,3-benzotriazin-3(4H)-yl)methyl]cyclopentanecarboxylic acid (enantiomer 2)]

Reference: patent US20170119776A1, “CHIRAL 2,5-DISUBSTITUTED CYCLOPENTANECARBOXYLIC ACID DERIVATIVES AND USE THEREOF” (BAYER PHARMA AKTIENGESELLSCHAFT, priority 2014, published 2017)
